Results taken from patent publication US20070238756A1, “COMBINATIONS OF DIPEPTIDYL PEPTIDASE IV INHIBITORS AND OTHER ANTIDIABETIC AGENTS FOR THE TREATMENT OF DIABETES MELLITUS” (priority 2000, published 2007).

Tests used:
male ZDF fa/fa rats [1] = experiment: % HbA1C 7 day change in ZDF rats; assay type: in vivo, rat; details: oral gavage BID for 7 days, Compound (I) 5 mg/kg, Compound (II) 100 mg/kg, combination of both doses, n=6, control 1.63 ± 1.12
Method: Age and weight matched male ZDF fa/fa rats (Genetic Models, Inc., Indianapolis, Ind.) were housed individually at 72° F. and 50% relative humidity with a 12 h light/dark cycle and fed PMI 5008 Formulab Diet (PMI Nutrition International, Saint Louis, Mo.).
(§1) Rats were anesthetized with isofluorane for cardiac blood collection 30 minutes after administration of the glucose solution. Serum chemistry measurements were obtained using an automated chemistry analyzer (ILab600, Instrument Laboratory, Lexington, Mass.).
Results from each group (n=6) were averaged and compared to vehicle treated rats to determine significance and are shown in Table I.

male ZDF fa/fa rats [2] = experiment: Glucose tolerance test, plasma glucose 30 min after intraperitoneal glucose, in ZDF rats; assay type: in vivo, rat; details: oral gavage BID for 7 days, i.p. glucose 30 min after last dose, blood 30 min after glucose, Compound (I) 5 mg/kg, Compound (II) 100 mg/kg, combination of both doses, n=6, control 695 ± 24
Method: For glucose tolerance measurements, rats were treated with test compound for 7 days and given an intraperitoneal injection of a glucose solution in saline 30 minutes after the last dose of test compound.
as §1

DPP-IV = biological target: T1, DPP-IV (Rattus norvegicus, UniProt P14740); experiment: Plasma DPP-IV activity in treated ZDF rats (Gly-Pro-AMC fluorogenic substrate); assay type: in vivo; details: male ZDF fa/fa rats, oral gavage BID for 7 days; Compound (I) 5 mg/kg, Compound (II) 100 mg/kg, combination of both doses; n=6; control 5544 ± 485
T1 construct: from tissue; host or cells: plasma of treated male ZDF fa/fa rats
Method: DPP-IV activity was measured using the fluorogenic substrate Gly-Pro-AMC ([…]) according to the manufacturer's specification (Enzyme System Products, Livermore Calif.). The substrate was mixed with 50 mM Tris, pH 7.8, in plasma (20% final v/v) and the samples were incubated for 5-20 min at 30 °C. DPP-IV activity was determined by measuring fluorescence using a cytofluor spectrofluoremeter with the filters set at 360 nm excitation and 460 nm emission.

T1 sequence (P14740 37-767 limits assumed): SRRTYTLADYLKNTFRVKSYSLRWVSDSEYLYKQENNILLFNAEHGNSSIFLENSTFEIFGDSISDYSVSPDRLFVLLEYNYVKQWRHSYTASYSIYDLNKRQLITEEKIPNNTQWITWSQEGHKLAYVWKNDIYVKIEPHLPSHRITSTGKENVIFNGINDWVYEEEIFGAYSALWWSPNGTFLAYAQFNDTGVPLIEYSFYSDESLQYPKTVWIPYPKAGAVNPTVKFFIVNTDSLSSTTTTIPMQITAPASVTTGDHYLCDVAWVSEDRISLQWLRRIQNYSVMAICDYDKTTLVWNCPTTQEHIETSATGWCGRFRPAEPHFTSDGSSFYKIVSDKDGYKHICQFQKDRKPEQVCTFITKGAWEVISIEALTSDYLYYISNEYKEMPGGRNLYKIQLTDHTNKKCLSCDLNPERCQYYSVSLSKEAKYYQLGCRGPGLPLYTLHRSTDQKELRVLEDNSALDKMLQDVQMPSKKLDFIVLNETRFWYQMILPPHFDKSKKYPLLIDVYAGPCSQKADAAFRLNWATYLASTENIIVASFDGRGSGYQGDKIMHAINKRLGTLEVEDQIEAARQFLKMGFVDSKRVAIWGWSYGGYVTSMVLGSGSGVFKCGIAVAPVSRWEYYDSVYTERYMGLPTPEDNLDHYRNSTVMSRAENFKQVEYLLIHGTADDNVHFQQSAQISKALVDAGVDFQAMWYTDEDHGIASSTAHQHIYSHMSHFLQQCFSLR

| Plasma DPP-IV activity (DPP-IV) | SMILES | % HbA1C (7 day change) (male ZDF fa/fa rats [1]) | Plasma Glucose (30 min GTT) (male ZDF fa/fa rats [2]) |
| --- | --- | --- | --- |
| – | CC[C@H](C)[C@H](N)C(=O)N1CCSC1 [Compound (II), isoleucine thiazolidide] | 1.81 ± 1.24% | 684 ± 60 |
| 4104 ± 399 | CN(CCOc1ccc(CC2SC(=O)NC2=O)cc1)c1ccccn1 (centres unmarked) [Compound (I), 5-[4-[2-(N-methyl-N-(2-pyridyl)amino)ethoxy]benzyl]thiazolidine-2,4-dione] | 0.79 ± 0.54 % | 665 ± 40 |
